The values that follow come from US20030224942A1, “Alkylamino-1,3,5-triazines, processes for their preparation and their use as herbicides and plant growth regulators” (priority 2001, published 2003).

Structures are written as SMILES.

The subject of assay [1] is Cyperus spp., Echinochloa spp., Digitaria spp., Sagitaria spp. and Scirpus spp. The assay is described as follows: Action on harmful plants in rice (paddy rice conditions, visual scoring). In kind it is in vivo, typical rice weeds (gramineous and broad-leaved). Conditions: applied into the dammed water, visual scoring about three weeks after application. An excerpt:
Transplanted and sown rice and also typical rice weeds (gramineous and broad-leaved) are cultivated in closed plastic pots in a greenhouse to the three-leaf stage (Echinochloa crus-galli 1.5-leaf) under paddy rice conditions (dammed height of water: 2-3 cm). This is followed by treatment with the compounds according to the invention. […] After this treatment, the test plants are set up in a greenhouse under optimum growth conditions and are maintained in this way throughout the test period.

For assay [2], the system named is Chenopodium spp., Papaver spp., Polygonum spp., Veronica spp. or Viola spp. Kind of assay: Post-emergence effect on weeds (greenhouse pot test, visual scoring). In kind it is in vivo, monocotyledonous and dicotyledonous weeds. Conditions: treated at three-leaf stage; visual scoring after about 3 to 4 weeks; application rate of 0.5 kg and less of active substance per hectare.

Regarding `CC(C)c1nc(N)nc(NC(C)c2ccc(F)c(C(F)=C(F)F)c2)n1` (centres unmarked) [Product P12.5], the “herbicidal activity against harmful plants which are typical for rice crops” value (from here on “herbicidal activity … for rice crops”) in assay [1] was “very good herbicidal activity”. Besides, the “herbicidal activity post-emergence against harmful plants” value (shortened to “herbicidal activity post-emergence”) in assay [2] is recorded as “very good herbicidal activity”.
Consider `CC#Cc1ccc(C(Nc2nc(N)nc(CC)n2)C2CC2)cc1` (centres unmarked) [Product P9.1583], for which the “herbicidal activity … for rice crops” value in assay [1] was “very good herbicidal activity”. Also, in assay [2], the “herbicidal activity post-emergence” value is given as “very good herbicidal activity”.
As to `CCc1nc(N)nc(NCc2ccc(F)c(C(F)=C(F)F)c2)n1` [Product P6.5], the “herbicidal activity … for rice crops” value in assay [1] is reported as “very good herbicidal activity”. In assay [2], the “herbicidal activity post-emergence” value is on record as “very good herbicidal activity”.
With `CCC(F)c1nc(N)nc(NCc2ccc(F)c(C3CC3)c2)n1` (centres unmarked) [Product P26.916], the “herbicidal activity … for rice crops” value in assay [1] is listed as “very good herbicidal activity”. Besides, in assay [2], the “herbicidal activity post-emergence” value is “very good herbicidal activity”.
As for `CC#Cc1ccc(C(C)Nc2nc(C)nc(N)n2)cc1` (centres unmarked) [Product P2.1583], the “herbicidal activity … for rice crops” value in assay [1] was “very good herbicidal activity”. In addition, the “herbicidal activity post-emergence” value in assay [2] is reported as “very good herbicidal activity”.
For the compound `C#Cc1ccc(C(C)Nc2nc(N)nc(C(C)C)n2)cc1F` (centres unmarked) [Product P12.1620], in assay [1], the “herbicidal activity … for rice crops” value is “very good herbicidal activity”. Also, the “herbicidal activity post-emergence” value in assay [2] is on record as “very good herbicidal activity”.
Consider `CC(O)C#Cc1ccc(C(C)Nc2nc(N)nc(C(C)(C)F)n2)cc1` (centres unmarked) [Product P17.1601], for which the “herbicidal activity … for rice crops” value in assay [1] was “very good herbicidal activity”. For the same compound, in assay [2], the “herbicidal activity post-emergence” value was “very good herbicidal activity”.
`CCC(F)c1nc(N)nc(NCc2ccc(C(F)=C(F)F)cc2)n1` (centres unmarked) [Product P26.1568]: the “herbicidal activity … for rice crops” value in assay [1] is given as “very good herbicidal activity”. Further, the “herbicidal activity post-emergence” value in assay [2] was “very good herbicidal activity”.
On to `Cc1nc(N)nc(NCc2cc(F)c(C(F)=C(F)F)c(F)c2)n1` [Product P1.49], for which the “herbicidal activity … for rice crops” value in assay [1] is “very good herbicidal activity”. Moreover, in assay [2], the “herbicidal activity post-emergence” value is recorded as “very good herbicidal activity”.
`CC#Cc1cccc(C(C)Nc2nc(N)nc(C(F)CC)n2)c1` (centres unmarked) [Product P27.1582]: the “herbicidal activity … for rice crops” value in assay [1] was “very good herbicidal activity”. Besides, in assay [2], the “herbicidal activity post-emergence” value is recorded as “very good herbicidal activity”.
Consider `CCC(F)c1nc(N)nc(NC(C)c2ccc(C3CC3)cc2)n1` (centres unmarked) [Product P27.1604], for which the “herbicidal activity … for rice crops” value in assay [1] was “very good herbicidal activity”. Further, the “herbicidal activity post-emergence” value in assay [2] is recorded as “very good herbicidal activity”.
For `Cc1nc(N)nc(NC(c2cc(F)c(C(F)=C(F)F)c(F)c2)C2CC2)n1` (centres unmarked) [Product P4.49], the “herbicidal activity … for rice crops” value in assay [1] was “very good herbicidal activity”. For the same compound, the “herbicidal activity post-emergence” value in assay [2] is “very good herbicidal activity”.
Regarding `Cc1nc(N)nc(NCc2cc(F)c(C3CC3)c(F)c2)n1` [Product P1.960], the “herbicidal activity … for rice crops” value in assay [1] is recorded as “very good herbicidal activity”. Also, the “herbicidal activity post-emergence” value in assay [2] is reported as “very good herbicidal activity”.
Turning to `C#Cc1ccc(CNc2nc(N)nc(C(C)(C)F)n2)cc1` [Product P16.1580], in assay [1], the “herbicidal activity … for rice crops” value is on record as “very good herbicidal activity”. For the same compound, in assay [2], the “herbicidal activity post-emergence” value is “very good herbicidal activity”.
`CC(Nc1nc(N)nc(C(C)(C)F)n1)c1cc(F)c(C(F)=C(F)F)c(F)c1` (centres unmarked) [Product P17.49]: in assay [1], the “herbicidal activity … for rice crops” value is given as “very good herbicidal activity”. Moreover, the “herbicidal activity post-emergence” value in assay [2] was “very good herbicidal activity”.
For `C#Cc1c(F)cc(C(C)Nc2nc(C)nc(N)n2)cc1F` (centres unmarked) [Product P2.352], the “herbicidal activity … for rice crops” value in assay [1] is listed as “very good herbicidal activity”. Further, in assay [2], the “herbicidal activity post-emergence” value is “very good herbicidal activity”.
Take `CC#Cc1c(F)cc(CNc2nc(N)nc(C(F)CC)n2)cc1F` (centres unmarked) [Product P26.428]: in assay [1], the “herbicidal activity … for rice crops” value is given as “very good herbicidal activity”. In addition, in assay [2], the “herbicidal activity post-emergence” value is listed as “very good herbicidal activity”.
On to `CC#Cc1cccc(C(C)Nc2nc(N)nc(C(C)(C)F)n2)c1` (centres unmarked) [Product P17.1582], for which, in assay [1], the “herbicidal activity … for rice crops” value is listed as “very good herbicidal activity”. Further, the “herbicidal activity post-emergence” value in assay [2] was “very good herbicidal activity”.
For the compound `C#Cc1cccc(CNc2nc(N)nc(C(C)C)n2)c1` [Product P11.1579], in assay [1], the “herbicidal activity … for rice crops” value is reported as “very good herbicidal activity”. For the same compound, the “herbicidal activity post-emergence” value in assay [2] was “very good herbicidal activity”.
For the compound `C#Cc1cccc(C(C)Nc2nc(N)nc(CC)n2)c1` (centres unmarked) [Product P7.1579], the “herbicidal activity … for rice crops” value in assay [1] is listed as “very good herbicidal activity”. In addition, in assay [2], the “herbicidal activity post-emergence” value is on record as “very good herbicidal activity”.
Consider `CC#Cc1ccc(CNc2nc(N)nc(C(C)F)n2)cc1` (centres unmarked) [Product P21.1583], for which the “herbicidal activity … for rice crops” value in assay [1] is reported as “very good herbicidal activity”. For the same compound, in assay [2], the “herbicidal activity post-emergence” value is given as “very good herbicidal activity”.
For `C#Cc1c(C)cc(C(C)Nc2nc(N)nc(C(C)F)n2)cc1C` (centres unmarked) [Product P22.348], the “herbicidal activity … for rice crops” value in assay [1] is reported as “very good herbicidal activity”. Moreover, in assay [2], the “herbicidal activity post-emergence” value is “very good herbicidal activity”.
For the compound `C#Cc1cc(C#C)cc(C(C)Nc2nc(N)nc(C(C)(C)F)n2)c1` (centres unmarked) [Product P17.369], the “herbicidal activity … for rice crops” value in assay [1] is on record as “very good herbicidal activity”. For the same compound, in assay [2], the “herbicidal activity post-emergence” value was “very good herbicidal activity”.
For the compound `C#Cc1cc(C(C)Nc2nc(N)nc(C(C)(C)F)n2)ccc1F` (centres unmarked) [Product P17.309], the “herbicidal activity … for rice crops” value in assay [1] is “very good herbicidal activity”. Also, the “herbicidal activity post-emergence” value in assay [2] is listed as “very good herbicidal activity”.
Take `C#Cc1cc(C(Nc2nc(N)nc(C(C)C)n2)C2CC2)ccc1F` (centres unmarked) [Product P14.309]: the “herbicidal activity … for rice crops” value in assay [1] is “very good herbicidal activity”. Also, the “herbicidal activity post-emergence” value in assay [2] was “very good herbicidal activity”.
As for `CC#Cc1cc(CNc2nc(N)nc(C(F)CC)n2)ccc1F` (centres unmarked) [Product P26.384], the “herbicidal activity … for rice crops” value in assay [1] is recorded as “very good herbicidal activity”. Besides, in assay [2], the “herbicidal activity post-emergence” value is reported as “very good herbicidal activity”.
In the case of `CC(C)c1nc(N)nc(NC(c2ccc(C3CC3)cc2)C2CC2)n1` (centres unmarked) [Product P14.1604], the “herbicidal activity … for rice crops” value in assay [1] was “very good herbicidal activity”. In addition, the “herbicidal activity post-emergence” value in assay [2] is reported as “very good herbicidal activity”.
Consider `C#Cc1cccc(C(Nc2nc(N)nc(CC)n2)C2CC2)c1` (centres unmarked) [Product P9.1579], for which, in assay [1], the “herbicidal activity … for rice crops” value is “very good herbicidal activity”. In assay [2], the “herbicidal activity post-emergence” value was “very good herbicidal activity”.
As to `CC(F)C#Cc1ccc(C(C)Nc2nc(N)nc(C(C)F)n2)cc1` (centres unmarked) [Product P22.1598], the “herbicidal activity … for rice crops” value in assay [1] is recorded as “very good herbicidal activity”. For the same compound, the “herbicidal activity post-emergence” value in assay [2] is listed as “very good herbicidal activity”.
Regarding `CC(F)c1nc(N)nc(NC(c2ccc(C(F)=C(F)F)cc2)C2CC2)n1` (centres unmarked) [Product P24.1568], the “herbicidal activity … for rice crops” value in assay [1] is listed as “very good herbicidal activity”. Besides, the “herbicidal activity post-emergence” value in assay [2] is recorded as “very good herbicidal activity”.
Take `CC#Cc1ccc(C(Nc2nc(N)nc(C(C)(C)F)n2)C2CC2)cc1` (centres unmarked) [Product P19.1583]: the “herbicidal activity … for rice crops” value in assay [1] is reported as “very good herbicidal activity”. For the same compound, the “herbicidal activity post-emergence” value in assay [2] is recorded as “very good herbicidal activity”.
Take `CC(F)c1nc(N)nc(NC(C)c2cccc(C3CC3)c2)n1` (centres unmarked) [Product P22.1603]: the “herbicidal activity … for rice crops” value in assay [1] is reported as “very good herbicidal activity”. Also, the “herbicidal activity post-emergence” value in assay [2] is given as “very good herbicidal activity”.
As for `CC#Cc1cc(CNc2nc(N)nc(C(C)F)n2)ccc1F` (centres unmarked) [Product P21.384], the “herbicidal activity … for rice crops” value in assay [1] is recorded as “very good herbicidal activity”. Further, the “herbicidal activity post-emergence” value in assay [2] is “very good herbicidal activity”.
Consider `CC(O)C#Cc1ccc(C(C)Nc2nc(N)nc(C(C)F)n2)cc1` (centres unmarked) [Product P22.1601], for which the “herbicidal activity … for rice crops” value in assay [1] is “very good herbicidal activity”. For the same compound, in assay [2], the “herbicidal activity post-emergence” value is on record as “very good herbicidal activity”.
`CC#Cc1cccc(CNc2nc(N)nc(C(F)CC)n2)c1` (centres unmarked) [Product P26.1582]: the “herbicidal activity … for rice crops” value in assay [1] was “very good herbicidal activity”. Further, the “herbicidal activity post-emergence” value in assay [2] was “very good herbicidal activity”.
Consider `CCc1nc(N)nc(NC(c2cccc(C(F)=C(F)F)c2)C2CC2)n1` (centres unmarked) [Product P9.1567], for which the “herbicidal activity … for rice crops” value in assay [1] is given as “very good herbicidal activity”. Also, the “herbicidal activity post-emergence” value in assay [2] is “very good herbicidal activity”.
For the compound `CC(C)(F)c1nc(N)nc(NCc2cc(F)c(C(F)=C(F)F)c(F)c2)n1` [Product P16.49], the “herbicidal activity … for rice crops” value in assay [1] is given as “very good herbicidal activity”. The “herbicidal activity post-emergence” value in assay [2] is “very good herbicidal activity”.
